Patent publication US6924268B2, “Method for inactivating gonadotrophs” (Colorado State University Research Foundation, priority 1989, dated 2005)

Assays:
ovine pituitary cells [1] = test: LH synthesis by ovine pituitary cells in suspension culture; format: cell-based; conditions: cells incubated with treatment for 16 hours; LH synthesis during 24 hour culture after removal
Protocol: In addition, the conjugation procedure reduces the toxicity of the pokeweed antiviral protein by 99.5 in a cell-free translation system. […] The activity of this conjugate was also tested in a pituitary cell culture system. In this system, pituitary cells were incubated with the sterilization agent conjugated to [D-Lys^6, des-Gly^10]-GnRH-ethylamide for 16 hours. After incubation, the sterilization agents were removed from the incubation media by extensive washing and the cells were then cultured for an additional 24 hours. The increase in total LH, i.e., that present in the media plus that in the cells during the 24 hour period, represents the ability of the treated cells to synthesize LH. […]
The effect of these compounds on ovine pituitary cells in suspension culture was measured. […] After pretreatment, the cells were washed 6 times, counted, and small aliquots removed for testing. […] 3 ml of cold Gel-PBS was added to each tube, cells were centrifuged, and the media was measured for LH content. The four pretreatment groups were evaluated for their ability to synthesize and secrete LH immediately after treatment and after the 24 hour recovery period.

ovine pituitary cells [2] = test: Total culture LH after exposure to GnRH and toxin conjugates with or without lysosomal agents; format: cell-based; conditions: 24 hour exposure, wash, further 24 hour culture in standard media
Protocol: Applicants then tested the more promising Barley-2IT-[D-Lys^6, desGly^10]-GnRH-ethylamide conjugate in similar assay systems. […] Ovine pituitary cells were again placed in culture with various agents and the total LH in the cells and media determined after a 24 hour exposure, wash, and further 24 hour culture in standard media.

[3] = test system: GnRH induced secretion of LH; test: GnRH induced secretion of LH in ovariectomized female rats; format: in vivo; conditions: single injection; ovariectomized female rat
Protocol: Applicants also tested these compounds using an in vivo model. The test system initially chosen was the ovariectomized female rat. […] During week 2, release of LH was reduced by 50% in the GnRH-A treated group (controls), but by >90% in the GnRH-A-T group. […] It might however be the basis for a temporary sterilization. Based upon this finding, a second experiment was conducted to examine the effect of 4 injections of a pokeweed antiviral sterilization conjugate at 3-day intervals on the ability of ovariectomized rats to release LH.
Applicants also tested the PAP-carbodiimide-[D-Lys^6, desGly^10]-GnRH-ethylamide conjugate in ovariectomized female rats.
FIG. 1B indicates the results of a challenge by one of applicants' compounds to ovariectomized rats. […] The open space above the bars indicates the amount of LH released in response to a GnRH challenge. The challenges were administered on the first day of treatment and again 4 weeks later.

| Substance | SYNTHESIS of LH (ovine pituitary cells [1]) | Total LH (ovine pituitary cells [2]) | reduction of release of LH, week 2 [3] |
| --- | --- | --- | --- |
| gonadotropin-releasing hormone (QHWSYGLRPG; Gonadoliberin-1; UniProt P01148 24-33, looked up) [GnRH, native decapeptide hormone] | 545.5 ng per 5 × 10^6 cells |  |  |
| pyroGlu-His-Trp-Ser-Tyr-D-Lys-Leu-Arg-Pro-ethylamide [[D-Lys^6, des-Gly^10]-GnRH-ethylamide] |  | 1.62 Ng/10^5 cells in Culture | 50% |
